In patent US20260042764A1, “COMPOSITIONS AND METHODS FOR INHIBITION OF KRAS” (TheRas, Inc., priority 2022, published 2026):
pIC50: −log10 of the molar value.

Experiments:
[1] = target: T1, Avi-KRAS WT (1-169) GppNHp/RAF1 RBD-3xFLAG (52-151) (Homo sapiens, UniProt P01116); experiment: Raf1-KRAS WT-GppNHP disruption HTRF assay (Biological Example 1); format: binding
T1 construct: Avi-KRAS WT (1-169)
Procedure, shortened: (§1)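 HTRF PPI disruption; buffer 50 mM Tris pH 7.5, 100 mM NaCl, 5 mM MgCl2, 0.1% BSA, 0.01% Tween, 10% DMSO. Protein mix 1 h RT shaking, reagent mix 1 h RT shaking. Data as % activity vs DMSO (100%).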

[2] = target: T2, Avi-KRAS G12D (1-169) GppNHp/RAF1 RBD-3xFLAG (52-151) (Homo sapiens, UniProt P01116, G12D); experiment: Raf1-KRAS G12D-GppNHP disruption HTRF assay (Biological Example 1); format: binding
T2 construct: Avi-KRAS G12D (1-169)
Procedure, shortened: as §1

[3] = tested on: SW620 cells (KRAS G12V); experiment: Cell-based pERK HTRF assay in SW620 cell (Biological Example 4)
Procedure, shortened: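 Read-out: HTRF pERK signal (excitation 320 nm, emission 615 nm) from lysates of SW620 cells after 4 h compound exposure. Dose range was 9 points, half-log steps from 1 μM, in 0.25% DMSO; antibody incubation ran 4–24 h at room temperature.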

[4] = target: T3, Avi-KRAS G12V (1-169) GppNHp/RAF1 RBD-3xFLAG (52-151) (Homo sapiens, UniProt P01116, G12V); experiment: Raf1-KRAS G12V-GppNHP disruption HTRF assay (Biological Example 1); format: binding
T3 construct: Avi-KRAS G12V (1-169)
Procedure, shortened: as §1

[5] = target: T4, Avi-KRAS G12R (1-169) GppNHp/RAF1 RBD-3xFLAG (52-151) (Homo sapiens, UniProt P01116, G12R); experiment: Raf1-KRAS G12R-GppNHP disruption HTRF assay (Biological Example 1); format: binding
T4 construct: Avi-KRAS G12R (1-169)
Procedure, shortened: as §1

[6] = target: T5, Avi-KRAS G12V (2-169) GTP/RAF1 RBD-3xFLAG (51-131) (Homo sapiens, UniProt P01116, G12V); experiment: Raf1-KRAS G12V-GTP disruption HTRF assay (Biological Example 3); format: binding; settings: KRAS G12V, GTP-loaded
T5 construct: Avi-KRAS G12V (2-169)
Procedure, shortened: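 HTRF PPI read-out (ex 320 nm, em 615 nm) after 1 h RT incubation with shaking; data as % activity vs DMSO (100%), IC50 from curve fit. Complex 50 nM, RBD reagent 75 nM; compound 30-0.005 μM, 3-fold.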

[7] = KRAS WT, GppNHp-loaded, class symbols
[8] = KRAS G12D, GppNHp-loaded, class symbols
[9] = Homo sapiens, SW-620, SW620 (KRAS G12V) cells
[10] = Homo sapiens, SW-620, SW620 (KRAS G12V) cells, pERK HTRF, class symbols
[11] = KRAS G12V, GppNHp-loaded, class symbols
[12] = KRAS G12R, GppNHp-loaded, class symbols
[13] = Homo sapiens, SW-620, SW620 (KRAS G12V) cells, pERK HTRF
[14] = SW620 (KRAS G12V) cells, pERK HTRF
[15] = KRAS WT, GppNHp-loaded, Table 11
[16] = KRAS G12D, GppNHp-loaded, Table 11
[17] = KRAS G12V, GppNHp-loaded, Table 11
[18] = KRAS G12R, GppNHp-loaded, Table 11

T1 sequence (P01116 1-169 isoform P01116-2): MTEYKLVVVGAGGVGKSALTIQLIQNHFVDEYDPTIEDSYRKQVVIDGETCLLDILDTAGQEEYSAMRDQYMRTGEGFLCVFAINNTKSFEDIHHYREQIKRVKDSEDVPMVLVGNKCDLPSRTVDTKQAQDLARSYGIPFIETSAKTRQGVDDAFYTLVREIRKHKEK
T4 sequence (P01116 1-169 isoform P01116-2 G12R): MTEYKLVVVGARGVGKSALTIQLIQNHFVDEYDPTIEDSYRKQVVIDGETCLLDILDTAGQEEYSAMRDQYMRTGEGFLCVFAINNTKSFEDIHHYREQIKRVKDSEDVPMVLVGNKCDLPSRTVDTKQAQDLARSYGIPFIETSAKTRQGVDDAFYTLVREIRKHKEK
T2 sequence (P01116 1-169 isoform P01116-2 G12D): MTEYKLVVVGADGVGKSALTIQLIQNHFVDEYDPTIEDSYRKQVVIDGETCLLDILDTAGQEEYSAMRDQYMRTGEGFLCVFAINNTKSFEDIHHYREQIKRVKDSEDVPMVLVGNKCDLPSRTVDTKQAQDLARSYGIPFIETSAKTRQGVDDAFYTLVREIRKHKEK
T5 sequence (P01116 2-169 isoform P01116-2 G12V): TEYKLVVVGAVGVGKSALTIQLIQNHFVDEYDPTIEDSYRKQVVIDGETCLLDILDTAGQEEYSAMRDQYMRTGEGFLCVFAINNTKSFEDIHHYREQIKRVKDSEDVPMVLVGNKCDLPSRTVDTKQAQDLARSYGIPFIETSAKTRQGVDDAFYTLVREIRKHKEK
T3 sequence (P01116 1-169 isoform P01116-2 G12V): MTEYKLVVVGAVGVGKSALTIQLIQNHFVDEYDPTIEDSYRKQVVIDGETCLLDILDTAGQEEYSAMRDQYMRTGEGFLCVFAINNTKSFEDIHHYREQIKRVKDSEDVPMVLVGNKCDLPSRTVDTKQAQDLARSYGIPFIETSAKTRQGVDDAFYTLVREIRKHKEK

| Structure (SMILES) | pIC50 [1, 7] | pIC50 [2, 8] | pIC50 [3, 9] | pIC50 [3, 10] | pIC50 [4, 11] | pIC50 [5, 12] | pIC50 [6] | pIC50 ([1]; KRAS WT-GppNHp/RAF1 RBD HTRF) | pIC50 ([2]; KRAS G12D-GppNHp/RAF1 RBD HTRF) | pIC50 [3, 13] | pIC50 ([4]; KRAS G12V-GppNHp/RAF1 RBD HTRF) | pIC50 ([5]; KRAS G12R-GppNHp/RAF1 RBD HTRF) | pIC50 [3, 14] | pIC50 [1, 15] | pIC50 [2, 16] | pIC50 [4, 17] | pIC50 [5, 18] |
| --- | --- | --- | --- | --- | --- | --- | --- | --- | --- | --- | --- | --- | --- | --- | --- | --- | --- |
| CCN(c1nc(OC[C@@H]2C[C@@H](OC)CN2C)nc2c(F)c(-c3ccc(F)c4sc(N)c(C#N)c34)c(C(F)(F)F)cc12)[C@H]1CCN(C(=O)C(C)C)C1 [Compound 706] | 6.00 to 7.00 | 6.00 to 7.00 | > 7.00 | > 7.00 | 6.00 to 7.00 | 6.00 to 7.00 | 5.00 to 6.00 |  |  |  |  |  |  |  |  |  |  |
| CCN(c1nc(OC[C@@]23CCCN2C[C@H](F)C3)nc2c(F)c(-c3ccc(F)c4sc(N)c(C#N)c34)c(C(F)(F)F)cc12)[C@@H]1CCN(C(=O)C(C)C)C1 [Compound 328] |  |  | > 7.00 |  |  |  | 5.00 to 6.00 | 6.00 to 7.00 | 6.00 to 7.00 | > 7.00 | 6.00 to 7.00 | 6.00 to 7.00 |  |  |  |  |  |
| N#Cc1c(N)sc2c(F)ccc(-c3c(C(F)(F)F)cc4c(N5CCCC[C@@H](O)C5)nc(OC[C@@]56CCCN5C[C@H](F)C6)nc4c3F)c12 [Compound 286] |  |  | > 7.00 |  |  |  | 6.00 to 7.00 | > 7.00 | > 7.00 | > 7.00 | 6.00 to 7.00 | > 7.00 |  |  |  |  |  |
| CCN(c1nc(OC[C@@]23CCCN2C[C@H](F)C3)nc2c(F)c(-c3ccc(F)c4sc(N)c(C#N)c34)c(C(F)(F)F)cc12)[C@H]1CCN(C(=O)C2CC2(F)F)C1 (stereo partly shown) [Compound 581] | > 7.00 | > 7.00 | > 7.00 | > 7.00 | > 7.00 | > 7.00 | ≥ 7.00 |  |  |  |  |  |  |  |  |  |  |
| CCC(=O)N1CC[C@@H](N(C)c2nc(OC[C@@]34CCCN3C[C@H](F)C4)nc3c(F)c(-c4ccc(F)c5sc(N)c(C#N)c45)c(C(F)(F)F)cc23)[C@H]1C (atropisomer, axis not shown) [Compound 335] |  |  | > 7.00 |  |  |  | 6.00 to 7.00 | > 7.00 | > 7.00 |  | > 7.00 | > 7.00 | > 7.00 |  |  |  |  |
| CCN(c1nc(OC[C@@]23CCCN2C[C@H](F)C3)nc2c(F)c(-c3ccc(F)c4sc(N)c(C#N)c34)c(C(F)(F)F)cc12)[C@H]1C[C@H](COC)N(C(=O)C2CC2)C1 (atropisomer, axis not shown) [Compound 696] | > 7.00 | > 7.00 | > 7.00 | > 7.00 | > 7.00 | > 7.00 | 6.00 to 7.00 |  |  |  |  |  |  |  |  |  |  |
| N#Cc1c(N)sc2c(F)ccc(-c3c(C(F)(F)F)cc4c(N5CCOCC5)nc(OC[C@@]56CCCN5C[C@H](F)C6)nc4c3F)c12 (single isomer, unassigned) [Compound 198] |  |  | > 7.00 |  |  |  | 6.00 to 7.00 |  |  |  |  |  | > 7.00 | 6.00 to 7.00 | 6.00 to 7.00 | 6.00 to 7.00 | 6.00 to 7.00 |
| N#Cc1c(N)sc2c(F)ccc(-c3c(C(F)(F)F)cc4c(N5CC6CC(C5)O6)nc(OC[C@@]56CCCN5C[C@H](F)C6)nc4c3F)c12 [Compound 145] |  |  | > 7.00 |  |  |  | 5.00 to 6.00 |  |  | > 7.00 |  |  |  | 6.00 to 7.00 | 6.00 to 7.00 | 6.00 to 7.00 | 6.00 to 7.00 |
| N#Cc1c(N)sc2c(F)ccc(-c3c(C(F)(F)F)cc4c(N5CC6CC(C5)O6)nc(OC[C@@]56CCCN5C[C@H](F)C6)nc4c3F)c12 (single isomer, unassigned) [Compound 275] |  |  | > 7.00 |  |  |  | 6.00 to 7.00 |  |  | > 7.00 |  |  |  | 6.00 to 7.00 | 6.00 to 7.00 | 6.00 to 7.00 | 6.00 to 7.00 |
| C[C@H](c1cccnc1N)N(C)c1nc(OC[C@@]23CCCN2C[C@H](F)C3)nc2c(F)c(-c3ccc(F)c4sc(N)c(C#N)c34)c(C(F)(F)F)cc12 (atropisomer, axis not shown) [Compound 600] | > 7.00 | > 7.00 | > 7.00 | > 7.00 | > 7.00 | > 7.00 | ≥ 7.00 |  |  |  |  |  |  |  |  |  |  |
